Measured values: patent US20240376091A1, “THIADIAZOLEAMIDE DERIVATIVES AND THEIR APPLICATIONS” (ZHEJIANG UNIVERSITY, priority 2021, published 2024)

Target: T1, AR (Homo sapiens, UniProt P10275, T878A)
T1 construct: into the androgen-dependent PCa cells (LNCaP); endogenous in cells; host or cells: LNCaP-ARR2PB-eGFP
T1 sequence (P10275 1-920 T878A): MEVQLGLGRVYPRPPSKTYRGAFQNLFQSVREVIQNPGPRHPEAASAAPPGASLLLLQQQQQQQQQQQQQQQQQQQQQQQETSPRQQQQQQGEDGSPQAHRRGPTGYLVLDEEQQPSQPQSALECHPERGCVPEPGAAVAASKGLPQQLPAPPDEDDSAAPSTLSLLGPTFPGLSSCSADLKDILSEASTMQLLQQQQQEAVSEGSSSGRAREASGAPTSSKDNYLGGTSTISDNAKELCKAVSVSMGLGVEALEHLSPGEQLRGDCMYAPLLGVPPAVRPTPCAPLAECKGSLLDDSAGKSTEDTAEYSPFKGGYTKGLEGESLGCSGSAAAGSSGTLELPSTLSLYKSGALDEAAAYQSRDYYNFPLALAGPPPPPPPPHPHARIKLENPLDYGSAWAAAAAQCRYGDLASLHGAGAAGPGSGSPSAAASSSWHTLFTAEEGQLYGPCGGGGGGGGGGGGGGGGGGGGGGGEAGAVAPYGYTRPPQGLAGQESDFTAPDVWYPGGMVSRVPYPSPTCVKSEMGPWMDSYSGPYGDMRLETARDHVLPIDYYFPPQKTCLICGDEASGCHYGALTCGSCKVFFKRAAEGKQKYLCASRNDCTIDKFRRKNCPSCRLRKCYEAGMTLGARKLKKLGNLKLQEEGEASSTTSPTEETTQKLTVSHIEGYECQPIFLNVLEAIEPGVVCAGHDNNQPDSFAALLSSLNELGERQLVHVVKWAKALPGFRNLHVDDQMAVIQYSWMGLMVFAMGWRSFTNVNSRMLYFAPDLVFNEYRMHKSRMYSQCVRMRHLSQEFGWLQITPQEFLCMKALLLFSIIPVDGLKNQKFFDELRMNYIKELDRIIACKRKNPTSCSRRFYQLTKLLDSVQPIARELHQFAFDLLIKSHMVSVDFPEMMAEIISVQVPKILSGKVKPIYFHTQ
Assay: AR transcriptional activity, LNCaP-ARR2PB-eGFP reporter cells
Format: cell-based
Details: read-out: IC50 AR transcriptional activities
Excerpt: Detection principles: We conducted a stable transfection of promoter ARR2PB known for its strong AR responsiveness, into the androgen-dependent PCa cells (LNCaP). The expression of enhanced green fluorescent protein (eGFP) is depending on the degree of activation of AR. Therefore, LNCaP-ARR2PB-eGFP cell line could quantitatively determine the AR antagonistic activities of the compounds by evaluating the expression of eGFP.

IC50 | SMILES
19.4 µM | COc1cccc(-c2cc(C(=O)Nc3nc(CC(C)N4CCCC4)ns3)c(C)s2)c1 (stereo not shown) [Compound C-14, 5-(3-Methoxyphenyl)-2-methyl-N-(3-(2-(pyrrolidin-1-yl)propyl)-1,2,4-thiadiazol-5-yl)thiophene-3-carboxamide]
6.17 µM | Cc1sc(-c2cccc(OC(F)(F)F)c2)cc1C(=O)Nc1nc(CC(C)N2CCOCC2)ns1 (stereo not shown) [Compound C-17, 2-Methyl-N-(3-(2-morpholinopropyl)-1,2,4-thiadiazol-5-yl)-5-(3-(trifluoromethoxy)phenyl)thiophene-3-carboxamide]
15.4 µM | Cc1sc(-c2cccc(OC(F)F)c2)cc1C(=O)Nc1nc(CC(C)N2CCN(C)CC2)ns1 (stereo not shown) [Compound C-19, 5-(3-(Difluoromethoxy)phenyl)-2-methyl-N-(3-(2-(4-methylpiperazin-1-yl)propyl)-1,2,4-thiadiazol-5-yl)thiophene-3-carboxamide]
4.52 µM | Cc1sc(-c2cccc(C(F)(F)F)c2)cc1C(=O)Nc1nc(CC(C)O)ns1 (stereo not shown) [Compound C-20, N-(3-(2-hydroxypropyl)-1,2,4-thiadiazol-5-yl)-2-methyl-5-(3-(trifluoromethyl)phenyl)thiophene-3-carboxamide]
2.51 µM | Cc1sc(-c2cccc(C(F)(F)F)c2)cc1C(=O)Nc1nc(CC(C)(O)C(F)(F)F)ns1 (stereo not shown) [Compound C-25, 2-Methyl-N-(3-(3,3,3-trifluoro-2-hydroxy-2-methylpropyl)-1,2,4-thiadiazol-5-yl)-5-(3-(trifluoromethyl)phenyl)thiophene-3-carboxamide]
12.7 µM | CC(Cc1nsc(NC(=O)c2cc(-c3cccc(C(F)(F)F)c3)sc2C)n1)=C(F)F [Compound C-30, N-(3-(3,3-difluoro-2-methylallyl)-1,2,4-thiadiazol-5-yl)-2-methyl-5-(3-(trifluoromethyl)phenyl)thiophene-3-carboxamide]
29.1 µM | Cc1sc(-c2cccc(C(F)(F)F)c2)cc1C(=O)Nc1nc(CC(C)(F)F)ns1 [Compound C-35, N-(3-(2,2-difluoropropyl)-1,2,4-thiadiazol-5-yl)-2-methyl-5-(3-(trifluoromethyl)phenyl)thiophene-3-carboxamide]
12.3 µM | Cc1sc(-c2cccc(C(F)(F)F)c2)cc1C(=O)Nc1nc(CCl)ns1 [Compound C-40, N-(3-(chloromethyl)-1,2,4-thiadiazol-5-yl)-2-methyl-5-(3-(trifluoromethyl)phenyl)thiophene-3-carboxamide]
12.5 µM | CCN(CC)Cc1nsc(NC(=O)c2cc(-c3cccc(OC)c3)sc2C)n1 [Compound C-50, N-(3-((diethylamino)methyl)-1,2,4-thiadiazol-5-yl)-5-(3-methoxyphenyl)-2-methyl-thiophene-3-carboxamide]
14.8 µM | Cc1sc(-c2cccc(OC(F)(F)F)c2)cc1C(=O)Nc1nc(CN2CCCC2)ns1 [Compound C-53, 2-Methyl-N-(3-(pyrrolidin-1-ylmethyl)-1,2,4-thiadiazol-5-yl)-5-(3-(trifluoromethoxy)phenyl)thiophene-3-carboxamide]
12.9 µM | Cc1sc(-c2cccc(OC(F)F)c2)cc1C(=O)Nc1nc(CN2CCCCC2)ns1 [Compound C-56, 5-(3-(Difluoromethoxy)phenyl)-2-methyl-N-(3-(piperidin-1-ylmethyl)-1,2,4-thiadiazol-5-yl)thiophene-3-carboxamide]
13.3 µM | Cc1sc(-c2cccc(OC(F)F)c2)cc1C(=O)Nc1nc(CN2CCOCC2)ns1 [Compound C-57, 5-(3-(Difluoromethoxy)phenyl)-2-methyl-N-(3-(morpholinomethyl)-1,2,4-thiadiazol-5-yl)thiophene-3-carboxamide]
9.79 µM | Cc1sc(-c2cccc(OC(F)F)c2)cc1C(=O)Nc1nc(CN2CCN(C)CC2)ns1 [Compound C-58, 5-(3-(Difluoromethoxy)phenyl)-2-methyl-N-(3-((4-methylpiperazin-1-yl)methyl)-1,2,4-thiadiazol-5-yl)thiophene-3-carboxamide]
